In US20040235742A1, “Water channel opener compositions and medicinal compositions for ophthalmic use” (SANTEN PHARMACEUTICAL CO., LTD., priority 1999, published 2004):

Columns and labels:
[1] = Lacrimation stimulating activity of odorant substances in mice; format: in vivo; settings: for Change in lacrimation output after 15 minutes (%): 30 mg/kg into the caudal vein, relative to the average of two measurements before administration
Description: Then, using (R)-(−)-carvone, (+)-pregon, borneol, trans-4-methylcyclohexanol, and menthol, all of which are odorant substances, each dissolved in 0.1% hydrogenated castor oil-saline, the lacrimation-stimulating activities of these substances were evaluated in vivo. The method used was as follows.
The tear fluid was collected from the left eye of mice at 15-min intervals using a glass microcapillary tube (aspiration capacity 0.5 μL/32 mm). The amount of aspirated tear fluid was measured in length (mm) using calipers and converted to μL for use as a marker of lacrimation output. Mice were anesthetized by intraperitoneal administration of Nembutal Anesthetic Solution (0.2 mL/10 g body weight, dosage 60 mg/kg). After the loss of pain reflex was confirmed in the mice, the measurement of lacrimation output was started. Measurements were invariably carried out at 15-min intervals from the start to the end. After two initial measurements made 15 minutes apart, each test substance (dosage 30 mg/kg) was immediately administered into the caudal vein of mice at a ratio of 0.1 mL/10 g body weight. Thereafter, the collection of tear fluid was carried out at 15-min intervals.
The change in lacrimation output was expressed in the percentage of the lacrimation output at each measurement relative to the average of the lacrimation outputs at two initial measurements prior to administration of each test substance.

[2] = Combined use of an odorant substance and pilocarpine hydrochloride on lacrimation output in mice; format: in vivo
Description: The effect of the combined use of (R)-(−)carvone, i.e. the odorant substance used in Example 1, and pillocarpine hydrochloride was evaluated. The method used was as follows. The tear fluid was collected from the left eye of mice at 15-min intervals using a glass microcapillary tube (aspiration capacity 0.5 μL/32 mm). The amount of aspirated tear fluid was measured in length (mm) using calipers and converted to μL for use as a marker of lacrimation output. Mice were anesthetized by intraperitoneal administration of Nembutal Anesthetic Solution (0.2 mL/10 g body weight, dosage 60 mg/kg). After the loss of pain reflex was confirmed in the mice, the measurement of lacrimation output was started. Measurements were invariably carried out at 15-min intervals from the start to the end. After two initial measurements made 15 minutes apart, the test substance was immediately administered into the caudal vein of mice at a ratio of 0.1 mL/10 g body weight. Then, the measurement was repeated at 15-min intervals. Immediately after the measurement of lacrimation output at 15 minutes following administration of the test substance, […] pilocarpine hydrochloride was administered subcutaneously at 0.1 mL/10 g body weight (dosage 5 mg/kg). The collection of tear fluid was further carried out 4 times at 15-min intervals. […] The results on (R)-(−)-carvone (dosage 30 mg/kg) are shown in the graph in FIG. 3. […]

sodium-potassium ATPase = settings: olfactory tissue; Life Sciences, 20, 1051-1062 (1977); cited from earlier work
lens aldose reductase = molecular target: T1, lens aldose reductase (Homo sapiens, UniProt P15121); settings: Arch. Pharm. Res., 11, 312-314 (1988); cited from earlier work
T1 construct: host or cells: lens

Row | Structure (SMILES) | Change in lacrimation output after 15 minutes (%) [1] [%] | further results
1 | C=C(C)[C@@H]1CC=C(C)C(=O)C1 [(R)-(−)-carvone] | 61.5 | increase in lacrimation output ([1]; Example 3, 15 to 30 minutes after administration): not less than 60%; change in lacrimation output, combined use with pilocarpine hydrochloride ([2]; (R)-(-)-carvone 30 mg/kg i.v., then 0.005% pilocarpine hydrochloride s.c. (dosage 5 mg/kg) 15 minutes later, FIG. 3): marked increases in lacrimation; duration of the lacrimation effect, combined use with pilocarpine ([2]; Example 4 compared with Example 3): further prolongation of the effect; effect on sodium-potassium ATPase (sodium-potassium ATPase): influence; inhibition of lens aldose reductase (lens aldose reductase): inhibit
2 | CC1CCC(C(C)C)C(O)C1 (stereo not shown) [Menthol, menthol] | 88.1 | 
3 | CC1(C)C2CCC1(C)C(O)C2 (stereo not shown) [Borneol, borneol] | 97.5 | 
4 | CC(C)=C1CC[C@@H](C)CC1=O [(+)-pregon] | 70.2 | 
5 | C[C@H]1CC[C@H](O)CC1 [Trans-4-methylcyclohexanol, trans-4-methylcyclohexanol] | 85.4 | 
